Common to all, as to experiment: Cell growth inhibition assay (MTS)
Common to all, as to assay type: cell-based

One experiment has as its system NCI-H1993. The note with it: Homo sapiens; NCI-H1993, lung adenocarcinoma. An outline of the steps: (§1)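 Growth inhibition was measured as loss of dehydrogenase activity: cells grown in DMEM with 10% fetal bovine serum received compound for 72 hours before a 4 hr MTS/PMS step and reading at 492 nm.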
For the next experiment, the system named is SK-HEP-1. The note with it: Homo sapiens, SK-HEP1; SK-HEP-1, liver adenocarcinoma. An outline of the steps:
as §1

For the next experiment, the system named is LS411N. The note with it: Homo sapiens, LS-411N, colorectal carcinoma. An outline of the steps:
as §1

A further experiment relates to SK-MEL-2. The note with it: Homo sapiens; SK-MEL-2, 72 hours. A digest of the protocol:
as §1

The values that follow come from patent US20100183600A1, “RAF Inhibitors and Their Uses” (ARQULE, INC., priority 2008, published 2010).

In the case of `Cn1ccc(S(=O)(=O)N2CCC[C@@H](Nc3nccc(-c4c(-c5cccc(OCOP(=O)(O)O)c5)nc5occn45)n3)C2)n1` [Compound 19, (R)-(3-(5-(2-(1-(1-methyl-1H-pyrazol-3-ylsulfonyl)piperidin-3-ylamino)pyrimidin-4-yl)imidazo[2,1-b]oxazol-6-yl)phenoxy)methyl dihydrogen phosphate], the values for the GI50 with NCI-H1993, in the experiment on SK-HEP-1 and in the experiment with LS411N were 26.2 µM, 7.22 µM and 0.31 µM, respectively.

Regarding `Cn1ccc(S(=O)(=O)N2CCC[C@@H](Nc3nccc(-c4c(-c5cccc(O)c5)nc5occn45)n3)C2)n1` [Compound 17, (R)-3-(5-(2-(1-(1-methyl-1H-pyrazol-3-ylsulfonyl)piperidin-3-ylamino)pyrimidin-4-yl)imidazo[2,1-b]oxazol-6-yl)phenol], the 50% growth inhibitory concentration (GI50) in the experiment with SK-MEL-2 came out at 0.154 µM.

Broadly, the GI50 is the concentration giving 50% growth inhibition. Read a low GI50 as more potent growth inhibition.
